Laboratory results from US20250197461A1, “Insect-derived short peptide for improving abscisic acid (ABA) content in cruciferous plant” (Gannan Normal University, priority 2023, published 2025).

Test system: Arabidopsis thaliana
Experiment: Phytohormone detection in Arabidopsis thaliana leaves treated with short peptide (LC-MS/MS)
Format: in vivo
Settings: 0.01 mg/mL; for ABA content / JA content: compared with GFP control group
Experimental: A synthetic short peptide of GSS1-PI with the corresponding concentration and mass was weighed and dissolved in 0.1% DMSO to obtain a 0.01 mg/mL treatment solution. A wild-type Arabidopsis thaliana plant of about four weeks old was taken, two cotyledons were collected and mechanically damaged to obtain three small holes, 2 μL of the GSS1-PI treatment solution was added dropwise into each small hole, while the control group was a solution of the same concentration prepared by synthesizing an unrelated short peptide GFP group (GFP-28aa: […], SEQ ID NO: 20) of the same length. After 24 h and 48 h of treatment, approximately 0.2 g of Arabidopsis thaliana leaves were collected, and each treatment had three biological replicates. The leaves were quickly placed in liquid nitrogen and stored in a −80° C. ultra-low temperature refrigerator for subsequent phytohormone group detection.
• a. The cryopreserved biological samples were ground with a grinder (30 Hz, 1 min) until they were in a powder form. • b. 50 mg of the ground sample was weighed and added with 10 μL of an internal standard mixed solution with a concentration of 100 ng/ml and 1 mL of an extractant including methanol/water/formic acid (15:4:1, v/v/v), and mixed well. • c. After vortexing for 10 min, a resulting mixture was centrifuged at 4° C. and 12,000 r/min for 5 min, and a resulting supernatant was transferred to a new centrifuge tube for concentration. • d. After concentration, the concentrated solution was reconstituted with 100 μL of 80% methanol/water solution, the reconstituted solution was filtered through a 0.22 μm filter, and the filtrate was placed in a sampling bottle for LC-MS/MS analysis.
The data acquisition instrument system mainly included ultra-performance liquid chromatography (UPLC) (ExionLC™ AD, //sciex.com.cn/) and tandem mass spectrometry (MS/MS) (QTRAP® 6500+, //sciex.com.cn/).
Liquid phase conditions mainly included: • 1) Chromatographic column: Waters ACQUITY UPLC HSS T3 C18 column (1.8 μm, 100 mm×2.1 mm i.d.); • 2) Mobile phase: phase A, ultrapure water (added with 0.04% acetic acid); phase B, acetonitrile (added with 0.04% acetic acid); • 3) Gradient elution program: 0 min A/B at 95:5 (V/V), 1.0 min A/B at 95:5 (V/V), 8.0 min at 5:95 (V/V), 9.0 min at 5:95 (V/V), 9.1 min at 95:5 (V/V), 12.0 min at 95:5 (V/V); • 4) Flow rate: 0.35 mL/min; column temperature: 40° C.; injection volume: 2 μL.
Electrospray ionization (ESI) ion source temperature was 550° C., the mass spectrometer voltage in the positive ion mode was 5,500 V, the mass spectrometer voltage in the negative ion mode was-4,500 V, and the curtain gas (CUR) was 35 psi. In the Q-Trap 6500+, each ion transition was scanned based on optimized declustering potential (DP) and collision energy (CE).
The quantificative analysis was accomplished using the multiple reaction monitoring mode (MRM, as shown below) of triple quadrupole mass spectrometry. […] And the non-target ion interference was eliminated, so that the quantification was more accurate and reproducible. After obtaining the mass spectrometry data of different samples, the chromatographic peaks of all target substances were integrated and quantitatively analyzed through the standard curve.

“PDYKQKLRDSKAWESLETIGIPLDADVM (insect-derived short peptide) [GSS1-PI]” was tested, and the ABA content (24 h treatment) was “increased significantly”, the JA content (24 h treatment) was “increased significantly” and the ABA content (48 h treatment) was “upward trend but no significant difference”. The JA content (48 h treatment) was “downward trend” and the SA content (before and after treatment) was “no significant change”.
